The test system of series [1] is Kunming mice. Briefly: Acetic Acid Twisting Method in mice (antalgic effect). The format is in vivo. The settings on record: for antalgic: single dosage 20 mg/kg, acetic acid twisting, unit not given (method: inhibiting rate %); for antalgic / twisting response inhibiting rate (%): mice; for twisting response inhibiting rate (%): subcutaneous injection at neck.
Series [2] deals with Kunming mice. The experiment in a line: Hot Plate Method in mice (antalgic effect). The format is in vivo. In general terms: Hot-plate and tail-flick tests time the reaction to a heat stimulus.
Series [3] has as its system mice. The following applies: mouse, in vivo.
Series [4] has as its system S. typhimurium TA97, TA98, TA100 and TA102. The experiment in a line: Bacterial Reverse-Mutation Assay (Ames TS). It is filed as cell-based. The source says: Strains: S. typhimurium TA97, TA98, TA100 and TA102.
Results: The assay included two parts: without S9 and with S9.

Series [5] relates to mice. The following applies: daily for eight days; III-15 60 mg/kg oral gavage, Morphine 10 mg/kg PO; Hot Plate 15 minutes after each administration.
The subject of series [6] is mice. The experiment in a line: Jump test in mice (physical dependence, naloxone precipitated). The following applies: III-15 seven times in two days, 20-120 mg/kg PO, naloxone 2 mg/kg i.v. three hours after last dosing.
Series [7] in a line: Animal model studies, summary (oral absorption, therapeutic index). The settings on record: summary statement.
The subject of series [8] is mice. The experiment in a line: Conditioned Place Preference test in mice (psychological dependence). The settings on record: III-15 60 mg/kg oral gavage each day for six consecutive days.
The subject of series [9] is Kunming mice. Briefly: Sedative effect: spontaneous activity of the mice recorded with AC power tube. It is filed as in vivo. The following applies: single dosage 20 mg/kg, unit not given. As for the experimental part: Kunming mice, clean class KM, purchased from Shanghai SLAC LABORATORY ANIMAL CO. LTD, breeding at general environment.
The compounds are formulated to solutions of 4 mg/ml, 2 mg/ml, and 1 mg/ml with water for injection. Animals in the control group and treatment group are all administered through subcutaneous injection at neck.
First of all, the mice in the treatment group are administrated with a solution of tested compounds (10 mg/kg, 20 mg/kg, 40 mg/kg) through subcutaneous injection at neck, the negative control group is administrated with physiological saline (20 ml/kg) orally, and the positive control group is administrated with Aspirin (20 ml/kg) orally. Each group is administrated with 10 ml/kg of 0.7% acetic acid via intraperitoneal injection (i.p.) after one hour. After 5 minutes, times of twisting response of each group of mice is recorded in 15 minutes, and twisting response inhibiting rate of each of the treatment groups is calculated according to the following equation: Inhibiting rate %=(average twisting times of negative control group−average twisting times of treated group)/average twisting times of negative control group×100% 6. A Sedative Effect is Evaluated by Using AC Power Tube to Record Spontaneous Activity of the Mice. 7. Testing the Antalgic and Sedative Effect of the Compounds with Single Dosage (20 mg/kg), See Table 2 for Details.

The mark [10] stands for this setting: Mus musculus, sc, read-out: twisting response inhibiting rate (%).

Molecules are shown by their SMILES. Where two headings read alike, the source gives them in different places. Marks after values point to notes of the source that are not given here.

As for `COc1ccc(CN2CCC(O)(CC(=O)c3ccccc3)CC2)cc1.Cl` [III-15, N-p-methoxybenzyl-4-benzoylmethyl-4-piperidinol hydrochloride], the inhibition in vivo at 20 mg/kg in the series on Kunming mice [1] (Mus musculus, sc, read-out: antalgic) was 96%. Besides, in the series with Kunming mice [1] (setting [10]), the inhibition in vivo at 10 mg/kg is 55.4%, the inhibition in vivo at 20 mg/kg stood at 94.4% and the inhibition in vivo at 40 mg/kg is 100%. Further, the change in vivo at 10 mg/kg with Kunming mice [2] (Mus musculus, sc, 10 mg/kg, subcutaneous injection at neck, 1 hour after dosing, hot plate 55.5° C., read-out: Increasing rate of pain threshold (%)) turned out to be 77.7%. The change in vivo at 20 mg/kg in the series with Kunming mice [2] (Mus musculus, sc, 20 mg/kg, subcutaneous injection at neck, 1 hour after dosing, hot plate 55.5° C., read-out: Increasing rate of pain threshold (%)) was determined as 118%. Besides, the change in vivo at 40 mg/kg in the series on Kunming mice [2] (Mus musculus, sc, 40 mg/kg, subcutaneous injection at neck, 1 hour after dosing, hot plate 55.5° C., read-out: Increasing rate of pain threshold (%)) was 260%. In the series with mice [3], the “reversal of the antalgic effect by naloxone” value was “does not reversed by naloxone”. Further, the “Ames test result (revertants)” value in series [4] (TA97, TA98, TA100, TA102, without S9 and with S9, all tested doses) was “negative”. In [4] (without S9 TA98 5000 μg/plate and with S9 TA97 5000 μg/plate, no inhibition at all other doses and strains), the “inhibitory effect on bacterial growth” value was “inhibitory effects on bacterial for the growth were seen”. Also, the “change of pain threshold / antalgic effect on consecutive administration (drug resistance)” value in the series with mice [5] is on record as “does not show weakening”. For the same compound, in the series on mice [6], the “jumping behavior after naloxone (physical dependence)” value is given as “no jumping behavior is observed”. The “absorption after oral administration” value in series [7] is reported as “good absorption after oral administration”. Besides, the “Conditioned Place Preference (psychological dependence)” value with mice [8] is recorded as “do not show Conditioned Place Preference”.
On to `CN1CC[C@]23c4c5ccc(O)c4O[C@H]2[C@@H](O)C=C[C@H]3[C@H]1C5` [Morphine, reference compound], for which the change in vivo at 2 mg/kg in the series on Kunming mice [2] (Mus musculus, sc, 1 h, positive control, 2 mg/kg (remark), subcutaneous injection, hot plate, read-out: Increasing rate of pain threshold (%)) came out at 202%. Besides, the “reversal of the antalgic effect by naloxone” value with mice [3] was “is reversed by naloxone”. Also, in the series with mice [5], the “change of pain threshold / antalgic effect on consecutive administration (drug resistance)” value is listed as “reduces gradually starting from the second day of administration”. Moreover, in the series on mice [6], the “jumping behavior after naloxone (physical dependence)” value is given as “obvious jumping behavior”. The “Conditioned Place Preference (psychological dependence)” value with mice [8] is on record as “show obvious Conditioned Place Preference”.
Take `CC(=O)Nc1ccc(CN2CCC(O)(CC(=O)c3ccccc3)CC2)cc1.Cl` [III-6, N-p-acetylaminobenzyl-4-benzoylmethyl-4-piperidinol hydrochloride]: the antalgic in the series with Kunming mice [1] was determined as 45. This compound also gave a sedative in the series on Kunming mice [9] of 75.
Consider `CC(=O)Nc1ccc(CN2CCC(O)(CC(O)c3ccccc3)CC2)cc1.Cl` (stereo not shown) [Compound V-2, N-p-acetylaminobenzyl-4-(2-hydroxy-2-phenylethyl)-4-piperidinol hydrochloride], for which, in the series on Kunming mice [1], the antalgic is reported as 80. The sedative with Kunming mice [9] is given as 39.6.
For `COC1(CC(=O)c2ccccc2)CCN(Cc2ccc(NC(C)=O)cc2)CC1.Cl` [VIII-1, N-p-acetylaminobenzyl-4-benzoylmethyl-4-methoxylpiperidine hydrochloride], the entries for the “twisting response inhibiting rate (%)” value with Kunming mice [1] (10 mg/kg), with Kunming mice [1] (20 mg/kg) and in the series with Kunming mice [1] (40 mg/kg) were 35.03* %, 42.11% and 57.69%, respectively. The antalgic in the series with Kunming mice [1] was 64. In addition, the sedative in the series with Kunming mice [9] is on record as 48. Further, the “Increasing rate of pain threshold (%)” value is 61.04% with Kunming mice [2] (10 mg/kg, subcutaneous injection at neck, 1 hour after dosing, hot plate 55.5° C.); 76.63* % with Kunming mice [2] (20 mg/kg, subcutaneous injection at neck, 1 hour after dosing, hot plate 55.5° C.); 105.20* % in the series with Kunming mice [2] (40 mg/kg, subcutaneous injection at neck, 1 hour after dosing, hot plate 55.5° C.).

For the origin of these results see patent US8501778B2, “Aralkyl piperidine derivatives and their uses as antalgic or ataractic agent” (priority 2008, dated 2013).
